{"source": "patent US6776987B1", "about": "“Enhancement of cardiac chronotropy” (Massachusetts Institute of Technology, priority 1998, dated 2004)", "key": {"[1]": {"test_system": "cultured fetal murine myocardial cells", "assay": "In vitro myocyte contractile recruitment: percentage of beating and fast beating GFP-positive transfected myocytes", "type": "cell-based, B6D2F1 fetal mice", "procedure": "(§1) Cultured fetal murine myocardial cells were prepared as previously described (Iwaki, K. et al., J Biol Chem., 265(23):13809-17 (1990); Sen, A. et al., J Clin Invest., 82 (4):1333-8 (1988)). Myocytes from ventricles of 17.5 day old B6D2F1 fetal mice were fragmented with a straight-edge razor. The tissue was then digested with 0.5 mg/ml collagenase II (Worthington Biochemical Corp., Freehold, N.J.) and 1.0 mg/ml pancreatin (Sigma Chemical Co., St. Louis, Mo.) in ADS buffer (116 mM NaCl, 20 mM HEPES, 1 MM NaH2PO4, 5.5 mM glucose, 5.4 mM KCl, 0.8 mM MgSO4, pH 7.4) at 37° C. for 10 min. The cells were centrifuged at 700 g at 4° C. for 5 min. The cells were then plated onto 48-well plates (Falcon Labware, Cockeysville, Md.) precoated with 1% gelatin or onto 25 mm^2 square coverslips precoated with 1% gelatin and 20 μg/ml laminin at a density of 10^5 cell/ml in Dulbecco's modified Eagle's media (DMEM) supplemented with 10% fetal calf serum (FCS), and Streptomycin 100 μg/ml, and Penicillin (500 μg/mL). The myocytes were grown at 37° C. in 5% CO2.\nThe transfection of myocytes with lipofection was optimized. Myocytes were plated as described above and grown overnight. The β2AR, LacZ, or GFP expression circular vectors (1:2.5 M/M; 0.125 μg total DNA/well) were incubated with Lipofectamine (Life Technologies) (12.5 μl/well) in Opti-Mem I (Life Technologies) reduced serum medium(12.5 μl/well) for 30 min at 25° C. After incubation, DMEM (100 μl/well) was added. The myocyte cultures were washed with PBS twice, the Lipofectamine-DNA mixtures were added, and the cultures incubated at 37° C. After 4 hours, an equal volume of DMEM with 20% FCS was added to the cultures. The cultures were incubated overnight and the medium was changed to DMEM with 10% FCS.\nThe myocytes were assayed 48 hr after transfection. […]\nThe percentage of beating myocytes was determined for cells transfected with either the β2AR expression vector or the control construct. […] In addition, the percentage of myocytes that were beating faster than 60 beats per minute (bpm) was determined in identical fashion. […]"}, "[2]": {"test_system": "cultured fetal murine myocardial cells", "assay": "Average rate of myocyte contraction by video edge motion detector", "type": "cell-based, B6D2F1 fetal mice", "conditions": "control transfected cells in the presence of 10^-3 M isoproterenol", "procedure": "as §1\nThe transfection of myocytes with lipofection was optimized. […]\nThe average rate of myocyte contraction was quantitated by motion detector under both baseline and 10^−3 M isoproterenol. […] The statistical significance of the increased rate of myocyte contraction was determined by Student's t-Test analysis."}}, "data": [{"smiles": "CC(C)NCC(O)c1ccc(O)c(O)c1", "note": "(stereo not shown) [isoproterenol]", "values": [{"measurement": "percentage of myocytes contracting", "setting": "[1]; control LacZ transfected myocytes, increasing concentrations of isoproterenol (0-10^-3 M)", "result": 69, "unit": "%"}, {"measurement": "percentage of myocytes with chronotropic rates greater than 60 bpm (fast beating cells)", "setting": "[1]; control transfected cells at 10^-3 M isoproterenol", "result": 54, "unit": "%"}, {"measurement": "effect on number of contracting myocytes", "setting": "[1]; β2AR transfected myocytes, addition of isoproterenol", "result": "failed to increase"}, {"measurement": "average rate of contraction", "setting": "[2]", "result": "75+/−18 bpm"}]}]}
